# ChEMBL document CHEMBL3044826, “Design, synthesis and biological evaluation of some novel substituted 2-mercapto-3-phenethylquinazolines as antitumor agents” (2013)
# Columns and labels:
# Assay type in all cases: functional
# MDA-MB-231 = experiment: Cytotoxicity against Homo sapiens (human) MDA-MB-231 cells assessed as growth inhibition at 10 uM after 48 hr by coulter counter analysis; conditions: MDA-MB-231, 48 h, read-out: GI
# SN12C = experiment: Cytotoxicity against Homo sapiens (human) SN12C cells assessed as growth inhibition at 10 uM after 48 hr by coulter counter analysis; conditions: read-out: GI
# HT-29 = experiment: Cytotoxicity against Homo sapiens (human) HT-29 cells assessed as growth inhibition at 10 uM after 48 hr by coulter counter analysis; conditions: HT-29, 48 h, read-out: GI
# Malme-3M = experiment: Cytotoxicity against Homo sapiens (human) MALME-3M cells assessed as growth inhibition at 10 uM after 48 hr by coulter counter analysis; conditions: read-out: GI
# SNB-75 = experiment: Cytotoxicity against Homo sapiens (human) SNB75 cells assessed as growth inhibition at 10 uM after 48 hr by coulter counter analysis; conditions: SNB-75, 48 h, read-out: GI
# RXF 393 = experiment: Cytotoxicity against Homo sapiens (human) RXF393 cells assessed as growth inhibition at 10 uM after 48 hr by coulter counter analysis; conditions: RXF 393, 48 h, read-out: GI
# LOX IMVI = experiment: Cytotoxicity against Homo sapiens (human) LOXIMVI cells assessed as growth inhibition at 10 uM after 48 hr by coulter counter analysis; conditions: read-out: GI
# MCF7 = experiment: Cytotoxicity against Homo sapiens (human) MCF7 cells assessed as growth inhibition at 10 uM after 48 hr by coulter counter analysis; conditions: MCF7, 48 h, read-out: GI
# OVCAR-3 = experiment: Cytotoxicity against Homo sapiens (human) OVCAR3 cells assessed as growth inhibition at 10 uM after 48 hr by coulter counter analysis; conditions: OVCAR-3, 48 h, read-out: GI
# KM12 = experiment: Cytotoxicity against Homo sapiens (human) KM12 cells assessed as growth inhibition at 10 uM after 48 hr by coulter counter analysis; conditions: KM12, 48 h, read-out: GI
# MDA-MB-435 = experiment: Cytotoxicity against Homo sapiens (human) MDA-MB-435 cells assessed as growth inhibition at 10 uM after 48 hr by coulter counter analysis; conditions: MDA-MB-435, 48 h, read-out: GI
# CAKI-1 = experiment: Cytotoxicity against Homo sapiens (human) Caki1 cells assessed as growth inhibition at 10 uM after 48 hr by coulter counter analysis; conditions: CAKI-1, 48 h, read-out: GI
# SW-620 = experiment: Cytotoxicity against Homo sapiens (human) SW620 cells assessed as growth inhibition at 10 uM after 48 hr by coulter counter analysis; conditions: SW-620, 48 h, read-out: GI
# MDA-MB-468 = experiment: Cytotoxicity against Homo sapiens (human) MDA-MB-468 cells assessed as growth inhibition at 10 uM after 48 hr by coulter counter analysis; conditions: MDA-MB-468, 48 h, read-out: GI
# SK-MEL-28 = experiment: Cytotoxicity against Homo sapiens (human) SK-MEL-28 cells assessed as growth inhibition at 10 uM after 48 hr by coulter counter analysis; conditions: SK-MEL-28, 48 h, read-out: GI
# HCT-15 = experiment: Cytotoxicity against Homo sapiens (human) HCT15 cells assessed as growth inhibition at 10 uM after 48 hr by coulter counter analysis; conditions: HCT-15, 48 h, read-out: GI
# A549 = experiment: Cytotoxicity against Homo sapiens (human) A549 cells assessed as growth inhibition at 10 uM after 48 hr by coulter counter analysis; conditions: A549, 48 h, read-out: GI
# HCT-116 = experiment: Cytotoxicity against Homo sapiens (human) HCT116 cells assessed as growth inhibition at 10 uM after 48 hr by coulter counter analysis; conditions: HCT-116, 48 h, read-out: GI
# HOP-62 = experiment: Cytotoxicity against Homo sapiens (human) HOP62 cells assessed as growth inhibition at 10 uM after 48 hr by coulter counter analysis; conditions: HOP-62, 48 h, read-out: GI
# SF-268 = experiment: Cytotoxicity against Homo sapiens (human) SF268 cells assessed as growth inhibition at 10 uM after 48 hr by coulter counter analysis; conditions: SF-268, 48 h, read-out: GI
# EKVX = experiment: Cytotoxicity against Homo sapiens (human) EKVX cells assessed as growth inhibition at 10 uM after 48 hr by coulter counter analysis; conditions: read-out: GI
# BT-549 = experiment: Cytotoxicity against Homo sapiens (human) BT549 cells assessed as growth inhibition at 10 uM after 48 hr by coulter counter analysis; conditions: BT-549, 48 h, read-out: GI
# PC-3 = experiment: Cytotoxicity against Homo sapiens (human) PC3 cells assessed as growth inhibition at 10 uM after 48 hr by coulter counter analysis; conditions: PC-3, 48 h, read-out: GI
# OVCAR-5 = experiment: Cytotoxicity against Homo sapiens (human) OVCAR5 cells assessed as growth inhibition at 10 uM after 48 hr by coulter counter analysis; conditions: OVCAR-5, 48 h, read-out: GI
# SF-539 = experiment: Cytotoxicity against Homo sapiens (human) SF539 cells assessed as growth inhibition at 10 uM after 48 hr by coulter counter analysis; conditions: SF-539, 48 h, read-out: GI
# OVCAR-8 = experiment: Cytotoxicity against Homo sapiens (human) OVCAR8 cells assessed as growth inhibition at 10 uM after 48 hr by coulter counter analysis; conditions: OVCAR-8, 48 h, read-out: GI
# SK-OV-3 = experiment: Cytotoxicity against Homo sapiens (human) SKOV3 cells assessed as growth inhibition at 10 uM after 48 hr by coulter counter analysis; conditions: SK-OV-3, 48 h, read-out: GI
# DU-145 = experiment: Cytotoxicity against Homo sapiens (human) DU145 cells assessed as growth inhibition at 10 uM after 48 hr by coulter counter analysis; conditions: DU-145, 48 h, read-out: GI
# OVCAR-4 = experiment: Cytotoxicity against Homo sapiens (human) OVCAR4 cells assessed as growth inhibition at 10 uM after 48 hr by coulter counter analysis; conditions: OVCAR-4, 48 h, read-out: GI
# NCI-H23 = experiment: Cytotoxicity against Homo sapiens (human) NCI-H23 cells assessed as growth inhibition at 10 uM after 48 hr by coulter counter analysis; conditions: NCI-H23, 48 h, read-out: GI
# ACHN = experiment: Cytotoxicity against Homo sapiens (human) ACHN cells assessed as growth inhibition at 10 uM after 48 hr by coulter counter analysis; conditions: read-out: GI
# M14 = experiment: Cytotoxicity against Homo sapiens (human) M14 cells assessed as growth inhibition at 10 uM after 48 hr by coulter counter analysis; conditions: M14, 48 h, read-out: GI
# TK-10 = experiment: Cytotoxicity against Homo sapiens (human) TK10 cells assessed as growth inhibition at 10 uM after 48 hr by coulter counter analysis; conditions: TK-10, 48 h, read-out: GI
# SNB-19 = experiment: Cytotoxicity against Homo sapiens (human) SNB19 cells assessed as growth inhibition at 10 uM after 48 hr by coulter counter analysis; conditions: SNB-19, 48 h, read-out: GI
Compound,inhibition of growth at 10 µM (MDA-MB-231),inhibition of growth at 10 µM (SN12C),inhibition of growth at 10 µM (HT-29),inhibition of growth at 10 µM (Malme-3M),inhibition of growth at 10 µM (SNB-75),inhibition of growth at 10 µM (RXF 393),inhibition of growth at 10 µM (LOX IMVI),inhibition of growth at 10 µM (MCF7),inhibition of growth at 10 µM (OVCAR-3),inhibition of growth at 10 µM (KM12),inhibition of growth at 10 µM (MDA-MB-435),inhibition of growth at 10 µM (CAKI-1),inhibition of growth at 10 µM (SW-620),inhibition of growth at 10 µM (MDA-MB-468),inhibition of growth at 10 µM (SK-MEL-28),inhibition of growth at 10 µM (HCT-15),inhibition of growth at 10 µM (A549),inhibition of growth at 10 µM (HCT-116),inhibition of growth at 10 µM (HOP-62),inhibition of growth at 10 µM (SF-268),further results
O=C1c2ccccc2C(=O)N1CCCSc1nc2ccccc2c(=O)n1CCc1ccccc1,14%,< 10%,13%,< 10%,< 10%,< 10%,< 10%,< 10%,< 10%,< 10%,< 10%,34%,< 10%,< 10%,< 10%,31%,18%,21%,< 10%,< 10%,inhibition of growth at 10 µM (EKVX): 16%; inhibition of growth at 10 µM (BT-549): < 10%; inhibition of growth at 10 µM (PC-3): 51%; inhibition of growth at 10 µM (OVCAR-5): < 10%; inhibition of growth at 10 µM (SF-539): < 10%; inhibition of growth at 10 µM (OVCAR-8): < 10%; inhibition of growth at 10 µM (SK-OV-3): 12%; inhibition of growth at 10 µM (DU-145): < 10%; inhibition of growth at 10 µM (OVCAR-4): < 10%; inhibition of growth at 10 µM (NCI-H23): < 10%; inhibition of growth at 10 µM (ACHN): < 10%; inhibition of growth at 10 µM (M14): < 10%; inhibition of growth at 10 µM (TK-10): < 10%; inhibition of growth at 10 µM (SNB-19): < 10%
O=C(CSc1nc2ccccc2c(=O)n1CCc1ccccc1)c1ccc(F)cc1,23%,< 10%,< 10%,< 10%,< 10%,< 10%,< 10%,< 10%,< 10%,< 10%,< 10%,21%,< 10%,< 10%,< 10%,< 10%,11%,18%,< 10%,25%,inhibition of growth at 10 µM (EKVX): 16%; inhibition of growth at 10 µM (BT-549): < 10%; inhibition of growth at 10 µM (PC-3): 13%; inhibition of growth at 10 µM (OVCAR-5): < 10%; inhibition of growth at 10 µM (SF-539): 13%; inhibition of growth at 10 µM (OVCAR-8): 31%; inhibition of growth at 10 µM (SK-OV-3): < 10%; inhibition of growth at 10 µM (DU-145): < 10%; inhibition of growth at 10 µM (OVCAR-4): < 10%; inhibition of growth at 10 µM (NCI-H23): 20%; inhibition of growth at 10 µM (ACHN): 24%; inhibition of growth at 10 µM (M14): < 10%; inhibition of growth at 10 µM (TK-10): < 10%; inhibition of growth at 10 µM (SNB-19): < 10%
O=c1c2ccccc2[nH]c(=S)n1CCc1ccccc1,< 10%,< 10%,< 10%,< 10%,< 10%,< 10%,< 10%,31%,< 10%,< 10%,< 10%,< 10%,< 10%,22%,< 10%,< 10%,< 10%,18%,26%,< 10%,inhibition of growth at 10 µM (EKVX): 18%; inhibition of growth at 10 µM (BT-549): < 10%; inhibition of growth at 10 µM (PC-3): 13%; inhibition of growth at 10 µM (OVCAR-5): < 10%; inhibition of growth at 10 µM (SF-539): < 10%; inhibition of growth at 10 µM (OVCAR-8): < 10%; inhibition of growth at 10 µM (SK-OV-3): < 10%; inhibition of growth at 10 µM (DU-145): < 10%; inhibition of growth at 10 µM (OVCAR-4): < 10%; inhibition of growth at 10 µM (NCI-H23): < 10%; inhibition of growth at 10 µM (ACHN): < 10%; inhibition of growth at 10 µM (M14): < 10%; inhibition of growth at 10 µM (TK-10): < 10%; inhibition of growth at 10 µM (SNB-19): < 10%
O=c1c2ccccc2nc(SCc2nnc(S)n2Cc2ccccc2)n1CCc1ccccc1,28%,< 10%,< 10%,< 10%,< 10%,< 10%,14%,27%,< 10%,< 10%,< 10%,< 10%,< 10%,< 10%,< 10%,< 10%,12%,24%,< 10%,< 10%,inhibition of growth at 10 µM (EKVX): 17%; inhibition of growth at 10 µM (BT-549): < 10%; inhibition of growth at 10 µM (PC-3): 12%; inhibition of growth at 10 µM (OVCAR-5): < 10%; inhibition of growth at 10 µM (SF-539): < 10%; inhibition of growth at 10 µM (OVCAR-8): < 10%; inhibition of growth at 10 µM (SK-OV-3): < 10%; inhibition of growth at 10 µM (DU-145): < 10%; inhibition of growth at 10 µM (OVCAR-4): < 10%; inhibition of growth at 10 µM (NCI-H23): < 10%; inhibition of growth at 10 µM (ACHN): < 10%; inhibition of growth at 10 µM (M14): < 10%; inhibition of growth at 10 µM (TK-10): < 10%; inhibition of growth at 10 µM (SNB-19): < 10%
